Drawing on the supplement of paper PMC10307832, this text covers relative viability for four cell lines.

Assay in all cases: relative viability (nuclei count vs DMSO), 5 days (fraction); higher = more cells survive
Compound in test [1]: Cn1nnc2c(C(N)=O)ncn2c1=O [Temozolomide] + CS(=O)(=O)N1CCN(Cc2cc3nc(-c4cccc5[nH]ncc45)nc(N4CCOCC4)c3s2)CC1 [Pictilisib] (partner 1 µM)
The method in brief: (§1)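 Each reported value is a median over duplicate plates. It expresses relative viability: treated-well nuclei count divided by vehicle-well nuclei count. Lung cancer cell lines in 1536-well plates were dosed by pin tool a day after seeding, alone with one drug or with a fixed anchor-drug dose plus five library-drug doses (not always all listed) in √10 steps, and nuclei were counted after 5 days.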

Compound in the test “AZD5582 + Alpelisib”: C[C@@H](C(=O)N[C@@H](C1CCCCC1)C(=O)N2CCC[C@H]2C(=O)N[C@@H]3[C@@H](CC4=CC=CC=C34)OCC#CC#CCO[C@@H]5CC6=CC=CC=C6[C@@H]5NC(=O)[C@@H]7CCCN7C(=O)[C@H](C8CCCCC8)NC(=O)[C@H](C)NC)NC [AZD5582] + Cc1nc(NC(=O)N2CCC[C@H]2C(N)=O)sc1-c1ccnc(C(C)(C)C(F)(F)F)c1 [Alpelisib] (partner 2 µM)
The method in brief: as §1

Compound in test [2]: Cn1nnc2c(C(N)=O)ncn2c1=O [Temozolomide] + Nc1nc2[nH]cc(CCc3ccc(C(=O)N[C@@H](CCC(=O)O)C(=O)O)cc3)c2c(=O)[nH]1 [Pemetrexed] (partner 0.2 µM)
The method in brief:
as §1

Compound in the test “AZD5582 + Palbociclib”: C[C@@H](C(=O)N[C@@H](C1CCCCC1)C(=O)N2CCC[C@H]2C(=O)N[C@@H]3[C@@H](CC4=CC=CC=C34)OCC#CC#CCO[C@@H]5CC6=CC=CC=C6[C@@H]5NC(=O)[C@@H]7CCCN7C(=O)[C@H](C8CCCCC8)NC(=O)[C@H](C)NC)NC [AZD5582] + CC(=O)c1c(C)c2cnc(Nc3ccc(N4CCNCC4)cn3)nc2n(C2CCCC2)c1=O [Palbociclib] (partner 0.5 µM)
The method in brief: as §1

Consider NCI-H1915, for which the relative viability in test [1] (first compound 0.2 µM) worked out at 1.11; in test [1] (first compound 0.6325 µM), 0.914; in test [1] (first compound 2 µM), 0.962; in test [1] (first compound 6.325 µM), 0.468; in test [1] (first compound 20 µM), 0.326; with AZD5582 + Alpelisib (first compound 0.001581 µM), 1.01. The relative viability with AZD5582 + Alpelisib (first compound 0.005 µM) stood at 1.06; with AZD5582 + Alpelisib (first compound 0.01581 µM), 1.09; with AZD5582 + Alpelisib (first compound 0.05 µM) it was 1.13; in test [2] (first compound 0.2 µM), 0.55; in test [2] (first compound 0.6325 µM) it was 0.491; in test [2] (first compound 2 µM) it was 0.545. The relative viability in test [2] (first compound 6.325 µM) amounted to 0.429; in test [2] (first compound 20 µM) it was 0.321; with AZD5582 + Palbociclib (first compound 0.001581 µM) it was 0.521; in the test with AZD5582 + Palbociclib (first compound 0.005 µM), 0.536; with AZD5582 + Palbociclib (first compound 0.01581 µM), 0.502; with AZD5582 + Palbociclib (first compound 0.05 µM), 0.544.

Take BEN: the relative viability amounted to 0.467 in test [1] (first compound 0.2 µM); 0.629 in test [1] (first compound 0.6325 µM); 0.657 in test [1] (first compound 2 µM); 0.552 in test [1] (first compound 6.325 µM); 0.484 in test [1] (first compound 20 µM); 0.884 with AZD5582 + Alpelisib (first compound 0.001581 µM). In addition, the relative viability with AZD5582 + Alpelisib (first compound 0.005 µM) amounted to 1.07; in the test with AZD5582 + Alpelisib (first compound 0.01581 µM), 1.16; with AZD5582 + Alpelisib (first compound 0.05 µM) it was 1.27; in test [2] (first compound 0.2 µM), 0.801; in test [2] (first compound 0.6325 µM) it was 0.92; in test [2] (first compound 2 µM), 0.936. In addition, the relative viability in test [2] (first compound 6.325 µM) amounted to 0.741; in test [2] (first compound 20 µM), 0.841; with AZD5582 + Palbociclib (first compound 0.001581 µM) it was 0.416; in the test with AZD5582 + Palbociclib (first compound 0.005 µM) it was 0.466; in the test with AZD5582 + Palbociclib (first compound 0.01581 µM), 0.497; in the test with AZD5582 + Palbociclib (first compound 0.05 µM), 0.435.

Take LC-2-ad: the relative viability in test [1] (first compound 0.2 µM) stood at 0.554; in test [1] (first compound 0.6325 µM) it was 0.546; in test [1] (first compound 2 µM) it was 0.511; in test [1] (first compound 6.325 µM), 0.593; in test [1] (first compound 20 µM), 0.481; with AZD5582 + Alpelisib (first compound 0.001581 µM), 0.911. In addition, the relative viability with AZD5582 + Alpelisib (first compound 0.005 µM) turned out to be 0.98; with AZD5582 + Alpelisib (first compound 0.01581 µM) it was 0.834; with AZD5582 + Alpelisib (first compound 0.05 µM) it was 1.11; in test [2] (first compound 0.2 µM), 0.281; in test [2] (first compound 0.6325 µM), 0.296; in test [2] (first compound 2 µM), 0.279. Also, the relative viability in test [2] (first compound 6.325 µM) turned out to be 0.291; in test [2] (first compound 20 µM) it was 0.287; with AZD5582 + Palbociclib (first compound 0.001581 µM) it was 0.465; with AZD5582 + Palbociclib (first compound 0.005 µM), 0.535; with AZD5582 + Palbociclib (first compound 0.01581 µM), 0.46; in the test with AZD5582 + Palbociclib (first compound 0.05 µM) it was 0.543.

In the case of LXF-289, the relative viability was 0.814 in test [1] (first compound 0.2 µM); 0.788 in test [1] (first compound 0.6325 µM); 0.823 in test [1] (first compound 2 µM); 0.737 in test [1] (first compound 6.325 µM); 0.655 in test [1] (first compound 20 µM); 1 with AZD5582 + Alpelisib (first compound 0.001581 µM). Moreover, the relative viability stood at 1.04 with AZD5582 + Alpelisib (first compound 0.005 µM); 0.988 with AZD5582 + Alpelisib (first compound 0.01581 µM); 1.07 in the test with AZD5582 + Alpelisib (first compound 0.05 µM); 0.941 in test [2] (first compound 0.2 µM); 0.877 in test [2] (first compound 0.6325 µM); 0.868 in test [2] (first compound 2 µM). Moreover, the relative viability in test [2] (first compound 6.325 µM) turned out to be 0.857; in test [2] (first compound 20 µM) it was 0.868; in the test with AZD5582 + Palbociclib (first compound 0.001581 µM), 0.575; in the test with AZD5582 + Palbociclib (first compound 0.005 µM), 0.585; with AZD5582 + Palbociclib (first compound 0.01581 µM), 0.577; in the test with AZD5582 + Palbociclib (first compound 0.05 µM), 0.598.
